Experimental findings from patent US20200128830A1, “FUSED BICYCLIC HETEROCYCLE DERIVATIVES AS PESTICIDES” (Bayer Aktiengesellschaft, priority 2017, published 2020) are described below.

What all share (assay type): in vivo
Assay [1] has as its system Lucilia cuprina. The assay is described as follows: Lucilia cuprina test. To be noted: application rate 100 ppm; L1 larvae on minced horsemeat; after 2 days. The method, then: Lucilia cuprina Test Solvent: Dimethyl Sulfoxide To produce a suitable active compound formulation, 10 mg of active compound are mixed with 0.5 ml of dimethyl sulfoxide, and the concentrate is diluted with water to the desired concentration. About 20 L1 larvae of the Australian sheep blowfly (Lucilia cuprina) are transferred into a test vessel containing minced horsemeat and the active compound preparation of the desired concentration. After 2 days, the kill in % is determined. 100% means that all the larvae have been killed; 0% means that no larvae have been killed.

The test system of assay [2] is Myzus persicae. The assay is described as follows: Myzus persicae oral test. The note with it: 120 h, mixed population of green peach aphids, after 5 days, read-out: efficacy; for pest or weed control at 4 ppm: application rate 4 ppm. As for the experimental part: Myzus persicae—Oral Test [table] To produce a suitable active compound formulation, 1 part by weight of active compound is dissolved with the stated parts by weight of solvent and made up to the desired concentration with water. 50 μl of the active compound formulation are transferred into microtitre plates and made up to a final volume of 200 μl with 150 μl of IPL41 insect medium (33%+15% sugar). Subsequently, the plates are sealed with parafilm, which a mixed population of green peach aphids (Myzus persicae) within a second microtitre plate is able to puncture and imbibe the solution. After 5 days, the efficacy in % is determined. 100% means that all the aphids have been killed; 0% means that no aphids have been killed.

For assay [3], the system named is Phaedon cochleariae. The assay is described as follows: Phaedon cochleariae spray test. To be noted: foliar, 168 h, application rate 100 g/ha, larvae on Chinese cabbage leaf discs, after 7 days, read-out: efficacy. The method, then: Phaedon cochleariae—Spray Test
(§1) To produce a suitable active compound formulation, 1 part by weight of active compound is dissolved with the specified parts by weight of solvent and made up to the desired concentration with water containing an emulsifier concentration of 1000 ppm. To produce further test concentrations, the formulation is diluted with emulsifier-containing water.
Discs of Chinese cabbage leaves (Brassica pekinensis) are sprayed with an active compound formulation of the desired concentration and, after drying, populated with larvae of the mustard beetle (Phaedon cochleariae).
After 7 days, the efficacy in % is determined. 100% means that all the beetle larvae have been killed; 0% means that no beetle larvae have been killed.

In assay [4] the test system is Spodoptera frugiperda. The assay is described as follows: Spodoptera frugiperda spray test. To be noted: foliar, 168 h, application rate 100 g/ha, caterpillars on maize leaf discs, after 7 days, read-out: efficacy. As for the experimental part: Spodoptera frugiperda—Spray Test [table] To produce a suitable active compound formulation, 1 part by weight of active compound is dissolved with the specified parts by weight of solvent and made up to the desired concentration with water containing an emulsifier concentration of 1000 ppm. To produce further test concentrations, the formulation is diluted with emulsifier-containing water. Leaf discs of maize (Zea mays) are sprayed with an active compound formulation of the desired concentration and, after drying, populated with caterpillars of the fall armyworm (Spodoptera frugiperda). After 7 days, the efficacy in % is determined. 100% means that all the caterpillars have been killed; 0% means that no caterpillar has been killed.

In assay [5] the test system is Myzus persicae. Description: Myzus persicae spray test. To be noted: foliar, 120 h, application rate 100 g/ha, Chinese cabbage leaf discs infested by all stages, after 5 days, read-out: efficacy. As for the experimental part:
Myzus persicae—Spray Test [table] To produce a suitable active compound formulation, 1 part by weight of active compound is dissolved with the specified parts by weight of solvent and made up to the desired concentration with water containing an emulsifier concentration of 1000 ppm. To produce further test concentrations, the formulation is diluted with emulsifier-containing water. Discs of Chinese cabbage leaves (Brassica pekinensis) infested by all stages of the green peach aphid (Myzus persicae) are sprayed with an active compound formulation of the desired concentration. After 5 days, the efficacy in % is determined. 100% means that all the aphids have been killed; 0% means that no aphids have been killed.

Assay [6] has as its system Ctenocephalides felis. The assay is described as follows: Ctenocephalides felis oral test. The note with it: application rate 100 ppm in citrated cattle blood; unfed adult cat fleas; after 2 days. As for the experimental part: Ctenocephalides felis—Oral Test Solvent: Dimethyl Sulfoxide To produce a suitable active compound formulation, 10 mg of active compound are mixed with 0.5 ml of dimethyl sulfoxide. Dilution with citrated cattle blood gives the desired concentration. About 20 unfed adult cat fleas (Ctenocephalides felis) are placed into a chamber which is closed at the top and bottom with gauze. A metal cylinder whose bottom end is closed with parafilm is placed onto the chamber. The cylinder contains the blood/active compound formulation, which can be imbibed by the fleas through the parafilm membrane. After 2 days, the kill in % is determined. 100% means that all of the fleas have been killed; 0% means that none of the fleas have been killed.

Assay [7] deals with Musca domestica. The assay is described as follows: Musca domestica test. The note with it: application rate 100 ppm; adult houseflies, sponge with sugar solution; after 2 days. As for the experimental part:
Musca domestica Test Solvent: Dimethyl Sulfoxide To produce a suitable active compound formulation, 10 mg of active compound are mixed with 0.5 ml of dimethyl sulfoxide, and the concentrate is diluted with water to the desired concentration. Vessels containing a sponge treated with sugar solution and the desired concentration of active compound formulation are populated with 10 adult houseflies (Musca domestica). After 2 days, the kill in % is determined. 100% means that all of the flies have been killed; 0% means that none of the flies have been killed.

Assay [8] relates to Tetranychus urticae. The assay is described as follows: Tetranychus urticae spray test, OP-resistant. The note with it: application rate 100 g/ha, bean leaf discs infested with all stages, after 6 days. The method, then:
Tetranychus urticae—Spray Test, OP-Resistant
as §1
Discs of bean leaves (Phaseolus vulgaris) infested with all stages of the greenhouse red spider mite (Tetranychus urticae) are sprayed with an active compound formulation of the desired concentration.
After 6 days, the efficacy in % is determined. 100% means that all the spider mites have been killed; 0% means that no spider mites have been killed.

Take `CCS(=O)(=O)c1c(-c2nc3cc(C(F)(F)F)ncc3n2C)sc2ccsc12` [I-1]: in assay [1], the “efficacy (kill in %)” value is 100%. In addition, in assay [2], the pest or weed control at 4 ppm was 100%.

For `CCS(=O)(=O)c1c(-c2nc3cc(C(F)(F)F)ncc3n2C)sc2ccoc12` [I-2, 2-[6-(Ethylsulfonyl)thieno[3,2-b]furan-5-yl]-3-methyl-6-(trifluoromethyl)-3H-imidazo[4,5-c]pyridine], the “efficacy (kill in %)” value in assay [1] was 100%. In addition, the pest or weed control at 4 ppm in assay [2] was 100%.

Consider `CCS(=O)(=O)c1c(-c2nc3cc(C(F)(F)F)ncc3n2C)sc2cc(C(F)(F)F)sc12` [I-3, 2-[3-(Ethylsulfonyl)-5-(trifluoromethyl)thieno[3,2-b]thiophen-2-yl]-3-methyl-6-(trifluoromethyl)-3H-imidazo[4,5-c]pyridine], for which the pest or weed control at 100 g/ha in assay [3] and in assay [4] was 100% throughout. The pest or weed control at 4 ppm in assay [2] was 100%.

`CCS(=O)(=O)c1c(-c2nc3cc(C(F)(F)F)ncc3n2C)sc2c1CCC2` [I-4, 2-[3-(Ethylsulfonyl)-5,6-dihydro-4H-cyclopenta[b]thiophen-2-yl]-3-methyl-6-(trifluoromethyl)-3H-imidazo[4,5-c]pyridine]: the “efficacy (kill in %)” value in assay [1] was determined as 90%. The pest or weed control at 4 ppm in assay [2] worked out at 100%.

Take `CCS(=O)(=O)c1c(-c2nc3cc(C(F)(F)F)ncc3n2C)sc2c(C#N)csc12` [I-5, 6-(Ethylsulfonyl)-5-[3-methyl-6-(trifluoromethyl)-3H-imidazo[4,5-c]pyridin-2-yl]thieno[3,2-b]thiophene-3-carbonitrile]: the pest or weed control at 4 ppm in assay [2] was 100%.

Take `CCS(=O)(=O)c1c(-c2nc3cc(C(F)(F)F)ncc3n2C)sc2c(NC(C)=O)csc12` [I-6, N-{6-(Ethylsulfonyl)-5-[3-methyl-6-(trifluoromethyl)-3H-imidazo[4,5-c]pyridin-2-yl]thieno[3,2-b]thiophen-3-yl}acetamide]: the pest or weed control at 100 g/ha in assay [5] stood at 90%.

Turning to `CCS(=O)(=O)c1c(-c2nc3cc(C(F)(F)F)ncc3n2C)sc2c(Br)csc12` [I-8, 2-[6-Bromo-3-(ethylsulfonyl)thieno[3,2-b]thiophen-2-yl]-3-methyl-6-(trifluoromethyl)-3H-imidazo[4,5-c]pyridine], the pest or weed control at 100 g/ha in assay [4] came to 100%. For the same molecule, the pest or weed control at 4 ppm in assay [2] stood at 100%.

Consider `CCS(=O)(=O)c1c(-c2nc3cc(C(F)(F)F)nnc3n2C)sc2nc(C(F)(F)F)sc12` [I-9], for which the pest or weed control at 100 g/ha in assay [3] and in assay [4] was 100% in each case. The pest or weed control at 4 ppm in assay [2] turned out to be 100%.

As to `CCS(=O)(=O)c1c(-c2nc3cc(C(F)(F)F)ncc3n2C)sc2c(-c3cnn(C)c3)csc12` [I-11, 2-[3-(Ethylsulfonyl)-6-(1-methyl-1H-pyrazol-4-yl)thieno[3,2-b]thiophen-2-yl]-3-methyl-6-(trifluoromethyl)-3H-imidazo[4,5-c]pyridine], the pest or weed control at 100 g/ha stood at 83% in assay [3] and 90% in assay [5]. Also, the pest or weed control at 4 ppm in assay [2] worked out at 90%.

For `CCS(=O)(=O)c1c(-c2nc3cc(C(F)(F)F)cnc3n2C)sc2nc(C(F)(F)F)sc12` [I-13], the pest or weed control at 100 g/ha in assay [3] and in assay [4] was 100% in each case. The pest or weed control at 4 ppm in assay [2] came to 90%.

Consider `CCS(=O)(=O)c1c(-c2nc3cc(C(F)(F)C(F)(F)F)ncc3n2C)sc2nc(C(F)(F)F)sc12` [I-14], for which the pest or weed control at 100 g/ha in assay [3] is 100%; in assay [4] it was 100%; in assay [5] it was 90%. For the same molecule, the pest or weed control at 4 ppm in assay [2] turned out to be 90%.

As to `CCS(=O)(=O)c1c(-c2nc3cc(C(F)(F)F)ncc3n2C)sc2c(-c3ccccc3)csc12` [I-16, 2-[3-(Ethylsulfonyl)-6-phenylthieno[3,2-b]thiophen-2-yl]-3-methyl-6-(trifluoromethyl)-3H-imidazo[4,5-c]pyridine], the pest or weed control at 100 g/ha in assay [4] was 100%; in assay [5] it was 90%. Also, the pest or weed control at 4 ppm in assay [2] was determined as 100%.

As to `CCS(=O)(=O)c1c(-c2nc3cc(C(F)(F)F)nnc3n2C)sc2cc(C(F)(F)F)sc12` [I-18], the pest or weed control at 100 g/ha in assay [3], in assay [4] and in assay [5] was 100% each time. Besides, the results for the “efficacy (kill in %)” value in assay [6] and in assay [7] were 100% and 80%, respectively. In assay [2], the pest or weed control at 4 ppm came to 100%.

`CCS(=O)(=O)c1c(-c2nc3cc(C(F)(F)F)ncc3n2C)sc2c(NC(=O)C3CC3)csc12` [I-19]: in assay [2] (application rate 0.8 ppm), the pest or weed control at 0.8 ppm stood at 100%.

Consider `CCS(=O)(=O)c1c(-c2nc3cc(C(F)(F)F)ncc3n2C)sc2c(-n3cc(Cl)cn3)csc12` [I-20, 2-[6-(4-Chloro-1H-pyrazol-1-yl)-3-(ethylsulfonyl)thieno[3,2-b]thiophen-2-yl]-3-methyl-6-(trifluoromethyl)-3H-imidazo[4,5-c]pyridine], for which the pest or weed control at 100 g/ha in assay [3] and in assay [4] was 100% each time. In addition, in assay [2], the pest or weed control at 4 ppm turned out to be 100%.

For `CCS(=O)(=O)c1c(-c2nc3cc(C(F)(F)F)ncc3n2C)sc2c(-n3cnc(C(F)(F)F)c3)csc12` [I-21], the figures for the pest or weed control at 100 g/ha in assay [3], in assay [4] and in assay [5] were 100%, 100% and 90%, respectively. In assay [2], the pest or weed control at 4 ppm was 100%.

`CCS(=O)(=O)c1c(-c2nc3cc(C(F)(F)F)ncc3n2C)sc2cc(C)sc12` [I-22]: in assay [5], the pest or weed control at 100 g/ha was 90%. In addition, the pest or weed control at 4 ppm in assay [2] is 100%.

Turning to `CCS(=O)(=O)c1c(-c2nc3cc(C(F)(F)F)ncc3n2C)sc2c(C3CC3)csc12` [I-23], the pest or weed control at 100 g/ha in assay [4] stood at 100%. Besides, in assay [2], the pest or weed control at 4 ppm stood at 100%.

`CCS(=O)(=O)c1c(-c2nc3cc(C(F)(F)F)ncc3n2C)sc2c(C(=O)NC)csc12` [I-24]: the pest or weed control at 100 g/ha in assay [5] is 90%. For the same molecule, in assay [2], the pest or weed control at 4 ppm was found to be 100%.

Turning to `CCS(=O)(=O)c1c(-c2nc3cc(C(F)(F)F)ncc3n2C)sc2cc(Cl)sc12` [I-25], the results for the pest or weed control at 100 g/ha in assay [4] and in assay [5] were 100% and 90%, respectively. For the same molecule, in assay [2], the pest or weed control at 4 ppm came out at 100%.

In assay [8], `CCS(=O)(=O)c1c(-c2nc3cc(C(F)(F)F)ncc3n2C)sc2c1C(=O)CC2` [I-30] showed an efficacy of 90%.
